Measured values published in US11331364B2, “Use for JNK inhibitor molecules for treatment of various diseases” (Xigen Inflammation Ltd., priority 2014, dated 2022).
Square brackets hold non-standard residues; d marks the D form. Peptide text beside a SMILES is read from it.

Assays:
[1] = tested on: Primary Rat Whole Blood Cells; assay: LPS-induced TNFα release in rat whole blood; format: cell-based; conditions: LPS 3 ng/ml; 1, 3, 10 μM
Description: Given are the results for the control, 1 μM of SEQ ID NO: 172, 3 μM of SEQ ID NO: 172, and 10 μM of SEQ ID NO: 172 at different levels of LPS (ng/ml).
Whole blood is collected from anesthetized rat or human healthy volunteers using a venipuncture connected to a pre-labeled vacuum tube containing sodium citrate. Tubes are gently mixed by inversion 7-8 times; and are then kept at RT until stimulation. JNK inhibitor of SEQ ID NO: 172 is prepared 6 times concentrated in PBS, and 30 μl/well of mix is added into 96-well plate. Whole blood is diluted by 1:2 in PBS and 120 μl of diluted blood is added in each well where either PBS alone or JNK inhibitor of SEQ ID NO: 172 has been previously added. Whole blood is incubated at 37° C.; 85 rpm (Stuart Orbital incubator SI500) for 60 min. Activators (LPS) are the prepared, 30 μl/well of LPS, 6 times concentrated. After 60 min incubation, LPS is added to the blood, blood is mixed by pipetting up and down, and then kept for 4 h under agitation (85 rpm), at 37° C. After the 4 h incubation, the plates are centrifuged at about 770 g, 4° C. for 15 min in a pre-cooled centrifuge. […] Cytokine (IL-6, IL-2, IFNγ and TNFα) were then measured using standard Elisa kits (e.g. from R&D Systems: DuoSet Elisas; or from BD Biosciences: BD Opteia Set Elisa). Results are expressed as pg/ml of supernatant of the measured cytokine.

healthy male volunteers = assay: Phase I safety and tolerability of single and repeated instillations; format: in vivo, human
Description: XG-104 was prepared as solution for instillations (in NaCl 0.9%). NaCl 0.9% served as placebo. A total of 49 subjects were included in this study, 28 in the “Single dose part” of this study and 21 in the “Multiple dose part” of this study. In the single dose part, the 28 subjects included were randomised between one of the 5 groups: 5 subjects in each of the 4 XG-104 groups (0.1 mg, 0.2 mg, 0.4 mg, 0.8 mg) (0.2, 0.4, 0.8 and 1.6%, respectively) and 8 subjects in the placebo group. In the multiple dose part, the 21 subjects included were randomised between one of the 4 groups: 5 subjects in each of the 3 XG-104 groups (0.1 mg, 0.2 mg, 0.4 mg) and 6 subjects in the placebo group. All subjects completed the study.
In the “Single dose part” of this study, single topical doses of 0.1, 0.2, 0.4 and 0.8 mg (0.2, 0.4, 0.8 and 1.6%, respectively) of XG-104 were tested. A single administration of XG-104 or placebo was performed on day 1 (D1) (one drop in the right eye). In the single dose part, subjects were hospitalized for approximately 36 h, namely from day −1 (D−1) evening to D2 morning. On day 3 an ambulatory visit was performed and the study ended with a visit at D4.
In the “Multiple dose part” of this study, three dose levels were tested. Doses were chosen according to the results of the single dose part as follows: first group: 0.1 mg (0.2%), second group: 0.2 mg (0.4%), and third group: 0.4 mg (0.8%). XG-104 or placebo was administered tid (“ter in die”—three times daily), each time 1 drop in the right eye, from D1 to D21. The administration took place at around 8 a.m., 12 a.m. and 8 p.m. In the multiple dose part, subjects were hospitalized from D−1 evening to D22 morning, whereby the end of the study was a visit at D36 (±2). For more flexibility, subjects had the possibility to perform some visits in ambulatory. In that case visits were the following: hospitalization for approximately 36 h, D−1 evening to D2 morning, ambulatory visits from D2 to D7, hospitalization for approximately 36 h, D7 evening to D9 morning, ambulatory visits from D9 to D14, hospitalization for approximately 36 h, D14 evening to D16 morning, ambulatory visits from D16 to D20, and hospitalization for approximately 36 h, D20 evening to D22 morning. The end of the study was a visit at D36 (±2), accordingly.
The safety parameters evaluated included: physical examination; vital signs (BP, PR); 12-lead ECG (electrocardiogram); fundus of the eye, intraocular pressure, slit lamp examination, best-corrected visual acuity, redness; Schirmer's tear test, TBUT (tear film break-up time); clinical laboratory tests (haematology, haemostasis, clinical chemistry and urinalysis); adverse events; and assessment of tolerability.

[2] = multiple dose 0.1 mg (0.2%) tid
[3] = multiple dose 0.2 mg (0.4%) tid
[4] = multiple dose 0.4 mg (0.8%) tid

Compound: CC(C)C[C@H](NC(=O)[C@H](CC(N)=O)NC(=O)[C@H](CC(C)C)NC(=O)[C@@H](NC(=O)[C@@H](C)NC(=O)[C@@H]1CCCN1C(=O)[C@H](CCCNC(=N)N)NC(=O)[C@@H](CCCCN)NC(=O)[C@@H]1CCCN1C(=O)[C@H](CCCNC(=N)N)NC(=O)[C@@H](CCCNC(=N)N)NC(=O)[C@H](CCCNC(=N)N)NC(=O)[C@H](CCCNC(=N)N)NC(=O)[C@H](CCC(N)=O)NC(=O)[C@@H](CCCNC(=N)N)NC(=O)[C@H](CCCNC(=N)N)NC(=O)[C@H](CCCCN)NC(=O)[C@H](CCCCN)NC(=O)[C@H](N)CCCNC(=N)N)[C@@H](C)O)C(=O)N[C@H](Cc1ccccc1)C(N)=O [SEQ ID NO: 172, rKKRrQRRrRPkRPaTLNLf] (H-[dR]KKR[dR]QRR[dR]RP[dK]RP[dA]TLNL[dF]-NH2; N-terminus assumed)
- LPS-induced TNFα release [1]: blocks LPS-induced TNFα release
- conjunctival hyperaemia, left eye, unlikely related (number) (healthy male volunteers; [2]): 2
- conjunctival hyperaemia, right eye, unlikely related (number) (healthy male volunteers; [2]): 6
- conjunctivas, right eye, probably related (number) (healthy male volunteers; [2]): 2
- punctate keratitis, left eye, unlikely related (number) (healthy male volunteers; [2]): 2
- punctate keratitis, left eye, unrelated (number) (healthy male volunteers; [2]): 1
- punctate keratitis, right eye, unlikely related (number) (healthy male volunteers; [2]): 6
- conjunctival hyperaemia, left eye, unlikely related (number) (healthy male volunteers; [3]): 3
- conjunctival hyperaemia, right eye, unlikely related (number) (healthy male volunteers; [3]): 5
- eyelid irritation, right eye, probably related (number) (healthy male volunteers; [3]): 1
- punctate keratitis, left eye, unlikely related (number) (healthy male volunteers; [3]): 1
- punctate keratitis, left eye, unrelated (number) (healthy male volunteers; [3]): 4
- punctate keratitis, right eye, unlikely related (number) (healthy male volunteers; [3]): 6
- punctate keratitis, right eye, unrelated (number) (healthy male volunteers; [3]): 1
- conjunctival hyperaemia, left eye, unlikely related (number) (healthy male volunteers; [4]): 2
- conjunctival hyperaemia, right eye, unlikely related (number) (healthy male volunteers; [4]): 10
- conjunctivitis, right eye, unlikely related (number) (healthy male volunteers; [4]): 1
- punctate keratitis, left eye, unlikely related (number) (healthy male volunteers; [4]): 2
- punctate keratitis, right eye, unlikely related (number) (healthy male volunteers; [4]): 5
- clinical examination, biological parameters, vital signs or ECG parameters (healthy male volunteers; multiple dose part): No clinically relevant findings
- intensity of TEAEs (healthy male volunteers; multiple dose part): mild to moderate
- serious adverse events (healthy male volunteers; multiple dose part): No serious adverse events
- TEAEs experienced after XG-104 administration (number) (healthy male volunteers; multiple dose part, tid D1 to D21, 0.1-0.4 mg): 61
- tolerability (healthy male volunteers; repeated dose t.i.d. 0.1 mg, 0.2 mg, 0.4 mg): well tolerated
- eye pruritus, right eye, unrelated (number) (healthy male volunteers; single dose 0.1 mg (0.2%)): 1
- punctate keratitis, right eye, unrelated (number) (healthy male volunteers; single dose 0.1 mg (0.2%)): 2
- tolerability (healthy male volunteers; single dose 0.1 mg, 0.2 mg, 0.4 mg): well tolerated
- conjunctival hyperaemia, right eye, unrelated (number) (healthy male volunteers; single dose 0.2 mg (0.4%)): 1
- punctate keratitis, right eye, unrelated (number) (healthy male volunteers; single dose 0.2 mg (0.4%)): 2
- punctate keratitis, right eye, unrelated (number) (healthy male volunteers; single dose 0.4 mg (0.8%)): 2
- TEAEs right eye probably related to study drug (number) (healthy male volunteers; single dose 0.8 mg (1.6%)): 3
- conjunctival hyperaemia, right eye, probably related (number) (healthy male volunteers; single dose 0.8 mg (1.6%)): 1
- conjunctivitis, right eye, probably related (number) (healthy male volunteers; single dose 0.8 mg (1.6%)): 2
- punctate keratitis, right eye, unrelated (number) (healthy male volunteers; single dose 0.8 mg (1.6%)): 1
- tolerability (healthy male volunteers; single dose 0.8 mg (1.6%)): rather well tolerated
- clinical examination, vital signs or ECG parameters (healthy male volunteers; single dose part): No clinically relevant findings
- intensity of TEAEs (healthy male volunteers; single dose part): mild
- serious adverse events (healthy male volunteers; single dose part): No serious adverse events
- TEAEs experienced after XG-104 administration (number) (healthy male volunteers; single dose part, 0.1-0.8 mg, one drop right eye): 21
